This is an account of results in ChEMBL document CHEMBL5104091, “Pyridazine as a privileged structure: An updated review on anticancer activity of pyridazine containing bioactive molecules” (Eur J Med Chem, 2021).

The structures appear in SMILES notation. Converted amounts (≈) assume the structure as drawn.

Assay [1] addresses Poly [ADP-ribose] polymerase 1 (Homo sapiens, UniProt P09874). The assay can be described thus: Displacement of [125I]KX1 from PARP1 in human OVCAR-8 cells incubated for 1 hr by wizard gamma counter analysis. The format is cell-based.
Assay [2] deals with T1, Vascular endothelial growth factor receptor 2 (Homo sapiens, UniProt P35968). The assay can be described thus: Binding affinity to VEGFR2 (unknown origin) at 10 uM using ULight-4E-BP1 peptide as substrate incubated for 1 hr in presence of ATP by fluorescence based analysis relative to control.
Assay [3] relates to HCT-116. Put plainly: Cytotoxicity against human HCT-116 cells assessed as cell growth inhibition measured after 48 hrs by SRB assay. Format: functional, cell-based. As to conditions: HCT-116, 48 h.
The target of assay [4] is Vascular endothelial growth factor receptor 3 (Homo sapiens) (UniProt P35916). Put plainly: Inhibition of VEGFR3 (unknown origin) at 10 uM by ELISA relative to control.
Assay [5] is described as follows: In vivo inhibition of VEGFR2 in Swiss albino mouse implanted with mouse Ehrlich cells incubated for 24 hrs by immunohistochemical staining based analysis relative to control. The format is functional.
Assay [6] relates to HepG2. Put plainly: Antiproliferative activity against human HepG2 cells assessed as cell growth inhibition incubated for 48 hrs by MTT assay. Format: functional, cell-based. The note with it: HepG2, 48 h.
Assay [7] deals with MCF7. Put plainly: Antiproliferative activity against human MCF7 cells assessed as cell growth inhibition incubated for 48 hrs by MTT assay. Format: functional, cell-based. As to conditions: MCF7, 48 h.
The target in assay [8] is T1, Vascular endothelial growth factor receptor 2. The assay can be described thus: Inhibition of VEGFR2 (unknown origin) using poly (Glu,Tyr) 4:1 as substrate measured after 5 mins in presence of ATP by ELISA method.
Assay [9] deals with HCT-116. Put plainly: Cytotoxicity against human HCT-116 cells assessed as cell growth inhibition measured after 72 hrs by MTT assay. The format is functional, cell-based. As to conditions: HCT-116, 72 h.
In assay [10] the test system is HepG2. The assay can be described thus: Cytotoxicity against human HepG2 cells assessed as cell growth inhibition after 48 hrs by SRB assay. The format is functional, cell-based. The note with it: HepG2, 48 h.
A further assay has as its system MDA-MB-468. The assay can be described thus: Cytotoxicity against human MDA-MB-468 cells assessed as cell growth reduction measured after 48 hrs by MTT assay. Format: functional, cell-based. The note with it: MDA-MB-468, 48 h.
In the next assay the test system is MDA-MB-231. The assay can be described thus: Antiproliferative activity against human MDA-MB-231 cells assessed as cell growth inhibition measured after 48 hrs by WST-1 assay. Format: functional, cell-based. The note with it: MDA-MB-231, 48 h.
Assay [11] has as its target Hepatocyte growth factor receptor (Homo sapiens, UniProt P08581). The assay can be described thus: Inhibition of MET (unknown origin) at 10 uM incubated for 60 mins by spectrophotometric analysis relative to control.
The species entered for the next assay is Homo sapiens. The assay can be described thus: Inhibition of WNT (unknown origin) at 10 uM measured after 24 hrs by TOPFlash reporter gene assay.
Another assay concerns KB. Put plainly: Cytotoxicity against human KB cells assessed as cell growth inhibition. Format: functional, cell-based.
In a further assay the test system is SK-MEL. Put plainly: Cytotoxicity against human SK-MEL cells assessed as cell growth inhibition. Format: functional, cell-based.
In the next assay the test system is PC-3. Put plainly: Cytotoxicity against human PC-3 cells assessed as cell growth inhibition by MTT assay. The format is functional, cell-based.
A further assay relates to P815. Put plainly: Cytotoxicity against mouse P815 cells assessed as cell growth inhibition measured after 48 hrs by MTT assay. Format: functional, cell-based. The note with it: P815, 48 h.
Assay [12] concerns MCF7. The assay can be described thus: Cytotoxicity against human MCF7 cells assessed as cell growth inhibition measured after 48 hrs by MTT assay. As to conditions: MCF7, 48 h. The format is functional, cell-based.
The test system of the next assay is ECa-109 cell line. The assay can be described thus: Antiproliferative activity against human EC109 cells assessed as inhibition of cell growth. The format is functional, cell-based.
The subject of assay [13] is MCF7. The assay can be described thus: Cytotoxicity against human MCF7 cells assessed as cell growth inhibition measured after 72 hrs by MTT assay. The format is functional, cell-based. The note with it: MCF7, 72 h.
The test system of assay [14] is MCF7. The assay can be described thus: Antiproliferative activity against human MCF7 cells assessed as cell growth inhibition. Format: functional, cell-based.
Assay [15] is described as follows: Inhibition of tyrosine kinase (unknown origin). Also noted: species or system Homo sapiens.

Vascular endothelial growth factor receptor 3 (Homo sapiens), sequence (P35916 whole entry): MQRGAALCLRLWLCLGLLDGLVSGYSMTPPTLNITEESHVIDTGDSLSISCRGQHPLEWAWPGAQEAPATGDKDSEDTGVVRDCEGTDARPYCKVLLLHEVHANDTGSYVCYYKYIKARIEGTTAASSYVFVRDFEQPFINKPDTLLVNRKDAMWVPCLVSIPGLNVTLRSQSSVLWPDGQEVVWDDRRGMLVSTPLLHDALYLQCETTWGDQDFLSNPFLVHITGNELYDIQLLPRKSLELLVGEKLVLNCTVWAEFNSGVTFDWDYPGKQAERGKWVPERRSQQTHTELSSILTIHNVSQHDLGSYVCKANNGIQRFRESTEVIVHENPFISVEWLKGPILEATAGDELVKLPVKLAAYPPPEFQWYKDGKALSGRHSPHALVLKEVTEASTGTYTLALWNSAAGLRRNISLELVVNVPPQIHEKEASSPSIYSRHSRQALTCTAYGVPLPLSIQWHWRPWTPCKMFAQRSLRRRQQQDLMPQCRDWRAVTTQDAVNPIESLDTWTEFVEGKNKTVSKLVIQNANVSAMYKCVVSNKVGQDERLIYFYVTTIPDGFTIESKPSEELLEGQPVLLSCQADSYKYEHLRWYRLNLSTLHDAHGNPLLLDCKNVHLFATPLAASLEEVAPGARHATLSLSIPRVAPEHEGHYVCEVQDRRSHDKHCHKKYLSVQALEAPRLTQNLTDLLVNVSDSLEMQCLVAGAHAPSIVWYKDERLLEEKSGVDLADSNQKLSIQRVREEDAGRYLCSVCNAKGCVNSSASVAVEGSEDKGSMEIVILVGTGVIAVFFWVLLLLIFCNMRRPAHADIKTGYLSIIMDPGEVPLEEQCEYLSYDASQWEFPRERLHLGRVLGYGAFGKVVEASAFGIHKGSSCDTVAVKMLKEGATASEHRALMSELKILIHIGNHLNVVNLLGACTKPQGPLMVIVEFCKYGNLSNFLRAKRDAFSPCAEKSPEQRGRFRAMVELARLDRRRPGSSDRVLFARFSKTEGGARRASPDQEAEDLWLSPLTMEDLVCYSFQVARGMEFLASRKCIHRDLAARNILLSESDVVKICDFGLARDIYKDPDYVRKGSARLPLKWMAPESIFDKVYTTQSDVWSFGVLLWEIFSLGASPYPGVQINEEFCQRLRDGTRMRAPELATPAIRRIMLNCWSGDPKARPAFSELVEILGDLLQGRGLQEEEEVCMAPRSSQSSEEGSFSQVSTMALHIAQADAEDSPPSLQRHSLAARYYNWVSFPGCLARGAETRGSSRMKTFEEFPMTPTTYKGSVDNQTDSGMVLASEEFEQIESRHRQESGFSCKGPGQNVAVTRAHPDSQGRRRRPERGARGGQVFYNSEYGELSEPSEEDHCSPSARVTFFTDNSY
T1 sequence (P35968 whole entry): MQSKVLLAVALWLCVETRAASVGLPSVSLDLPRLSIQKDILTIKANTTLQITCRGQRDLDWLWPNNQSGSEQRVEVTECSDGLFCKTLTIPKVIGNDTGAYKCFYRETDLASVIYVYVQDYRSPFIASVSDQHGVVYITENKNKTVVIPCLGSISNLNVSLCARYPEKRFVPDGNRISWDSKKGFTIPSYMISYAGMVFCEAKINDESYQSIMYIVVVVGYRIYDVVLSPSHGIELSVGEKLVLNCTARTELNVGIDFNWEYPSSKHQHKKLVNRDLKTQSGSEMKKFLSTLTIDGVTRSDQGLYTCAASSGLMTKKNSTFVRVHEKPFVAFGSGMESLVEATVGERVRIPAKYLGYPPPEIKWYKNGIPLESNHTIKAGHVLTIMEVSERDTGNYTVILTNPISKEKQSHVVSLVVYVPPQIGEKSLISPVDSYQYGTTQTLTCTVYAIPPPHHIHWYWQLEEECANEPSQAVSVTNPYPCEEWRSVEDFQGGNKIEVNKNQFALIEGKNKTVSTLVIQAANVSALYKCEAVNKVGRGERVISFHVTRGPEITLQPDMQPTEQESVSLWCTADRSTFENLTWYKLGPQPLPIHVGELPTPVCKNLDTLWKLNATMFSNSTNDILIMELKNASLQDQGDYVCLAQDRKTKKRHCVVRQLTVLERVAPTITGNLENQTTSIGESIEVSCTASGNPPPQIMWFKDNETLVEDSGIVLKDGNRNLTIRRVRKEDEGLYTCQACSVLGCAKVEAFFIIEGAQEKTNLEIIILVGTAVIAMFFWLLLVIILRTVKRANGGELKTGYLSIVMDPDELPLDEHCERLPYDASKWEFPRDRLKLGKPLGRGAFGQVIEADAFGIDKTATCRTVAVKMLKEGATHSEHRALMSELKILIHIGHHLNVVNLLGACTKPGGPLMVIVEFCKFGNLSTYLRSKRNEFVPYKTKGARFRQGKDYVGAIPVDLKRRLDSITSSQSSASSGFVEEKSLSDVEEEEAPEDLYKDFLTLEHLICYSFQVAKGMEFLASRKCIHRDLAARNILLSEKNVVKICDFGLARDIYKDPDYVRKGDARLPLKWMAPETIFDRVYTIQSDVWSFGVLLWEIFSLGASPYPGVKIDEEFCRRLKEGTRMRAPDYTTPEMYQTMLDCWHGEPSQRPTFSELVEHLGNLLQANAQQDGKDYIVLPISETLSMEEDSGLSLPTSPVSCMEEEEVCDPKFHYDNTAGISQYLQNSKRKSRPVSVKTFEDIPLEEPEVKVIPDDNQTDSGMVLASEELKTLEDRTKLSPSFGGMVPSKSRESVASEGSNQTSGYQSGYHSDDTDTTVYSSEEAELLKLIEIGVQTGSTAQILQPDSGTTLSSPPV
Poly [ADP-ribose] polymerase 1, sequence (P09874 whole entry): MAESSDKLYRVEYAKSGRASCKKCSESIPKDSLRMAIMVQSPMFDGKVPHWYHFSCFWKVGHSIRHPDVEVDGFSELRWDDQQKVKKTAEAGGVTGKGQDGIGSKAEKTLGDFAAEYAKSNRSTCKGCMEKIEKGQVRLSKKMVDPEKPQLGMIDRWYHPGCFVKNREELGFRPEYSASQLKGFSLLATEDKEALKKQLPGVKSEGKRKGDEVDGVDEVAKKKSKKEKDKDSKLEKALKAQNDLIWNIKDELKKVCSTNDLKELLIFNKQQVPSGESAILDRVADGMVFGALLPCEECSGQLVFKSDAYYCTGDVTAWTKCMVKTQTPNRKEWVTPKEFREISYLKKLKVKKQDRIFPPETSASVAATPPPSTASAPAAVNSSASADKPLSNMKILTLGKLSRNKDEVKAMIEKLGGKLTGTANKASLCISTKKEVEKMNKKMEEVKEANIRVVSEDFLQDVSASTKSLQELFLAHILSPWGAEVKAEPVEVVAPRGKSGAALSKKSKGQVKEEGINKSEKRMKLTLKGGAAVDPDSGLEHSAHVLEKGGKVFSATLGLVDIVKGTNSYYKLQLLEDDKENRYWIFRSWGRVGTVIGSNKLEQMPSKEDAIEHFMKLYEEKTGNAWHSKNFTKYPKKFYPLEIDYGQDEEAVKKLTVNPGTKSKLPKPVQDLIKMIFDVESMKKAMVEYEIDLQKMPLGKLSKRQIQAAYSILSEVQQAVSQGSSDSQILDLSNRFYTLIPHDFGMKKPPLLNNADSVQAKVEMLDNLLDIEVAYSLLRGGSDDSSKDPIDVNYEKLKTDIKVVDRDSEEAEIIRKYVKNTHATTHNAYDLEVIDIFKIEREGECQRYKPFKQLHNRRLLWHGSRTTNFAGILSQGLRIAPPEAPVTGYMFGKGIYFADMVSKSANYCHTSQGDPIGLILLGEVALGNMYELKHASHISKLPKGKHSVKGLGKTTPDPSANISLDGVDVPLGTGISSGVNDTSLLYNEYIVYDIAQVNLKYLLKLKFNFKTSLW
Hepatocyte growth factor receptor, sequence (P08581 whole entry): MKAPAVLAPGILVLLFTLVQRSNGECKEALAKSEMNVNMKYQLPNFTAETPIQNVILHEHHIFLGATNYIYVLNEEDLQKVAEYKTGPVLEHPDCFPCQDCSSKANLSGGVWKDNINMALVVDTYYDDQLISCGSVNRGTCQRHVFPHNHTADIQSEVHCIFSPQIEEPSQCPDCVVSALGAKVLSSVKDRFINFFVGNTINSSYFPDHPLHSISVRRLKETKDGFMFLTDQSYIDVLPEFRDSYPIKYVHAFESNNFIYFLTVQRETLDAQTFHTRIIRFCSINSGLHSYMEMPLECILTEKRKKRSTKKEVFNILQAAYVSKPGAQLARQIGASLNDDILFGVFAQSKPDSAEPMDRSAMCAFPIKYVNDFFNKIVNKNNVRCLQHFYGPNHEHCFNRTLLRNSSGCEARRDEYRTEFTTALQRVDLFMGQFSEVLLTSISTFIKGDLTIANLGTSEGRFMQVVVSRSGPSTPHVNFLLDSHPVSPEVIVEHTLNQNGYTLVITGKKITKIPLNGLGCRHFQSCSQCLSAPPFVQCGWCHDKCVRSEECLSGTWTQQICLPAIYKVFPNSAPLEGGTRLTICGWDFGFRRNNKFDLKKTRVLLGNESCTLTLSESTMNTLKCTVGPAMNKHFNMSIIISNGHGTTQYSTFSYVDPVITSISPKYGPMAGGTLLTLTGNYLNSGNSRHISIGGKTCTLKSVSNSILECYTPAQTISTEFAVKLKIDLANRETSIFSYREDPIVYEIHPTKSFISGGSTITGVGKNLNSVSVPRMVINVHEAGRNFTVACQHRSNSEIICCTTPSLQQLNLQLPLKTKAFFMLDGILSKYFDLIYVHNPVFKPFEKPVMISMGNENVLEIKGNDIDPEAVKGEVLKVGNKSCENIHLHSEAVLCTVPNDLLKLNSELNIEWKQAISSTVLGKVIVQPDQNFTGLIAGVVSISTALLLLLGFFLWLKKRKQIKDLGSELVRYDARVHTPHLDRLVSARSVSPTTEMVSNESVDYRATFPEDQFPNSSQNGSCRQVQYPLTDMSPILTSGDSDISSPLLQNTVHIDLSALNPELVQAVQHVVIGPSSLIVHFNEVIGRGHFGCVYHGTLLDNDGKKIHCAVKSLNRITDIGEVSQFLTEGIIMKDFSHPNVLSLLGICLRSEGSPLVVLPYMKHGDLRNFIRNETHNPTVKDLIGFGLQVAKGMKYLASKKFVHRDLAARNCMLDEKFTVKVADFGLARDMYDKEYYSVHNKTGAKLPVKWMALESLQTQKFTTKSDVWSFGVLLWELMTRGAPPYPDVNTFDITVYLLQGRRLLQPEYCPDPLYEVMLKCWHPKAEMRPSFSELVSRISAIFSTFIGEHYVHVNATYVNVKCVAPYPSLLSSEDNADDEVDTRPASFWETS

Turning to `COC1CCN(C(=O)c2cc(Cc3n[nH]c(=O)c4ccccc34)ccc2F)C1` (stereo not given), the IC50 in assay [1] came to 0.0042 µM. In the case of `O=C(Nc1ccc(Cl)c(C(F)(F)F)c1)Nc1nnc2ccc(N3CCOCC3)nn12`, the Activity in [2] is 3%. In the case of `N=C(N)NS(=O)(=O)c1ccc(Nc2ccc(Nc3cccc(NC(=O)CCCl)c3)nn2)cc1`, the IC50 in the assay with HCT-116 [3] stood at 39 µM. In assay [4], this compound displayed an inhibition of 89.6%. In addition, the “inhibition (INH)” value in assay [5] was found to be 10%. `COc1ccc(-c2cc(Cc3ccc(Cl)cc3)c(=O)[nH]n2)cc1`: the IC50 in the assay on HepG2 [6] is 14.8 µM; in the assay with MCF7 [7], more than 37 µM.

As to `O=C(NNc1nn2cnnc2c2ccccc12)Nc1ccccc1`, in [8], the IC50 was determined as 0.31 µM. Regarding `COc1cccc(NC(=O)Cc2ccc(-c3nn4c(C)nnc4c4ccccc34)cc2)c1`, in the assay on HCT-116 [9], the IC50 turned out to be 57.4 mg/L. As to `COC(=O)CNC(=O)Cn1nc(Cc2ccccc2)c2ccccc2c1=O`, in the assay on HepG2 [10], the half-inhibitory concentration (IC50) amounted to 5.7 mg/L (≈ 15.6 µM). Regarding `Cc1n[nH]c(=S)cc1Cc1cc2cc(Cl)ccc2o1`, the concentration for half-maximal inhibition (IC50) in the assay with MDA-MB-468 came out at 11.5 µM. Regarding `O=C1Nc2ccc(Cl)cc2/C1=N/Nc1nnc(-c2ccccc2)c2ccccc12`, in the assay on MDA-MB-231, the IC50 was 12 µM.

With `CC(=O)c1ccc(-c2ccc(=O)n(Cc3nc(-c4ncccn4)no3)n2)s1`, the inhibition was 17% in assay [11] and 19% in the assay listed under Homo sapiens.

For `O=C1Nc2ccc(F)cc2/C1=N/Nc1nnc(-c2ccccc2)c2ccccc12`, the IC50 with MDA-MB-231 came to 12 µM. For `Cc1n[nH]c(=O)cc1Cc1cc2cc(Cl)cc(Br)c2o1`, in the assay on MDA-MB-468, the IC50 is 3.1 µM. The compound `Cc1ccc(NC(=O)c2ccc(CN3CCN(C)CC3)cc2)cc1Nc1nccc(-c2cccnc2)n1` [IMATINIB] returned an inhibition in [4] of 89.6%. Moreover, the “inhibition (INH)” value in assay [5] was 30%.

On to `O=c1c(CNc2ccccc2)cc(-c2ccccc2CO)nn1Cc1ccccc1`, for which the IC50 with KB came to 2.3 µM; in the assay with SK-MEL it was 4.2 µM.

For `Sc1nnc(Cc2ccccc2)c2ccccc12`, the IC50 in the assay on PC-3 is 8.6 mg/L (≈ 34.1 µM).

As for `NNc1nnc(-c2ccc(Oc3ccccc3)cc2)c2ccccc12`, the IC50 with PC-3 came to 12.2 mg/L (≈ 37.2 µM).

As for `O=C1Nc2ccc(F)cc2/C1=N/Nc1nnc(-c2ccc(Cl)cc2)c2ccccc12`, the IC50 with MDA-MB-231 was determined as 12 µM. On to `C=CCNC(=S)Nc1cccc(Nc2ccc(Nc3ccc(S(=O)(=O)NC(=N)N)cc3)nn2)c1`, for which the IC50 in the assay with HCT-116 [3] came to 30.3 µM. In [4], this compound showed an inhibition of 89.6%. For the same compound, the “inhibition (INH)” value in assay [5] is 40%.

On to `O=C(Nc1ccc(Cl)c(Cl)c1)Nc1nnc2ccc(Cl)nn12`, for which, in assay [2], the Activity was determined as 3%. As for `Cc1n[nH]c(=O)cc1Cc1cc2cc(C(C)C)ccc2o1`, the IC50 turned out to be 35 µM with P815 and 14.5 µM with MCF7 [12]. On to `O=c1[nH]cc(F)c(=O)[nH]1` [FLUOROURACIL], for which the results for the IC50 in the assay on ECa-109 cell line and with MDA-MB-231 were 14.4 µM and 29.4 µM, respectively. For `Sc1nnc(-c2ccc(Oc3ccccc3)cc2)c2ccccc12`, in the assay on PC-3, the IC50 came out at 9.22 mg/L (≈ 27.9 µM). As to `Cc1n[nH]c(=O)cc1Cc1cc2ccccc2o1`, the 50% inhibitory concentration (IC50) in the assay with P815 came to 35 µM; in the assay with MCF7 [12], 14.5 µM. Consider `O=C(NNc1nn2cnnc2c2ccccc12)NC1CCCCC1`, for which the IC50 was 8.8 µM with MCF7 [13], 0.11 µM in assay [8] and 6.04 µM in the assay on HCT-116 [9]. With `CC1=Nc2c(nnc3ccc(C)cc23)C(=O)NN1`, the IC50 is 0.049 µM in the assay on MCF7 [14] and 0.22 µM in assay [15].

As for `S=C(NNc1nn2cnnc2c2ccccc12)Nc1ccccc1`, the IC50 in [8] stood at 0.91 µM.
